Results on 24 compounds are retold here after patent US20240294548A1, “TRICYCLIC SULTAMS AND SULFAMIDES AS ANTITUMOR AGENTS” (PELOTON THERAPEUTICS INC., priority 2021, published 2024).

Assay [1] concerns HCT116 human colorectal carcinoma cells. Briefly: CellTiter-Glo assay (cell viability). In kind it is cell-based. The settings on record: HCT-116, 72 h, HCT116 cells, 3 days, CellTiter-Glo luminescence, read-out: CTG IC50. As to the method: HCT116 human colorectal carcinoma cells were used in these experiments. HCT116 cells were obtained from ATCC. CellTiter-Glo® Luminescent Cell Viability Assay Reagent was obtained from Promega.
About 3,000 cells were seeded into 96-well plate with 100 μL of media (DMEM supplemented with 10% FBS, 100 units penicillin, and […] streptomycin per mL) the day before the experiment. For compound treatment, the master plate was prepared as follows: 100× compound stocks were prepared in a 96-well plate by 1 to 3 serial dilutions of 0.5 mM DMSO stocks. Each master plate contained serial dilution of 8 compounds, including the control compound E7820. […] of 100× compound stock was added to each well of the assay plate to give final concentrations of […]. Each concentration was tested in triplicate. After 3 days, cell viability was determined using CellTiter-Glo Luminescent Cell Viability Assay Reagent following the manufacturer's recommended protocol. Briefly, […] of CellTiter-Glo reagent was added to each well of the assay plate and the contents were mixed for 3 minutes at 600 rpm on a shaker (Thermomixer R). The plate was immediately placed in a plate reader (Synergy 2) and the luminescence signal (0.5 second per well integration time) was determined. IC50 values were calculated using Dotmatics software.
(In general: ATP-based viability assays read luminescence as a measure of living cells.)

Assay [2] deals with T1, DCAF15 RBM39 ternary complex (Homo sapiens, UniProt Q14498+Q66K64, DEL276-383).
T1 construct: Amino acids 150 to 331 of RBM39 were cloned into pGEX4T3; GST (from the pGEX4T3 vector, own knowledge) followed by a TEV cleavage site (N); made in house; host or cells: Sf9 baculovirus (DDB1ΔB/DCAF15); E. coli (RBM39 R1R2)
T1 sequence (Q66K64 with tags, fused parts or gaps DEL276-383): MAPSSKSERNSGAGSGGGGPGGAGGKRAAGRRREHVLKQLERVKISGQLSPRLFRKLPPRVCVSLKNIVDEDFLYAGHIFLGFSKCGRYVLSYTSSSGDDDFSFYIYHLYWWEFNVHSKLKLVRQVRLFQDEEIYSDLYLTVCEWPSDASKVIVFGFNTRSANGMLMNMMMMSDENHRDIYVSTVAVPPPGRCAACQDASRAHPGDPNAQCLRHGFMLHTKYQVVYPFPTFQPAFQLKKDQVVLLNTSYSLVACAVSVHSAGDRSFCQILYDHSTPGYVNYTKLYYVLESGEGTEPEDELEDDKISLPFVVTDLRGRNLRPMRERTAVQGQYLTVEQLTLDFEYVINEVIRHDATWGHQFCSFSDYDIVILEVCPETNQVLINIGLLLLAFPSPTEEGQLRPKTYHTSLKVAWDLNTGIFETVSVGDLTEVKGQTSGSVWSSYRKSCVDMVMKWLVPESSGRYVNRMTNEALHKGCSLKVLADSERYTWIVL
T1 sequence (Q14498 150-331, stated change not applied): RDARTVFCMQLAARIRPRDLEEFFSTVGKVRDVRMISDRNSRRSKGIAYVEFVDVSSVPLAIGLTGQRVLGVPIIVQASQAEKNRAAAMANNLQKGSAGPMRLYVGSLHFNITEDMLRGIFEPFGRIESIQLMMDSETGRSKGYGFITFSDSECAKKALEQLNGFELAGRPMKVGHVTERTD
Briefly: DCAF15 RBM39 complex formation assay (FRET). It is filed as biochemical. The note with it: FRET ratio, 20 nM DDB1DB/DCAF15, 50 nM RBM39 R1R2, overnight at 4° C.; read-out: DCAF15 RBM39 ternary complex EC50. The procedure, abridged:
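TR-FRET between Eu-anti-His and APC-anti-FLAG, using 20 nM His-DCAF15/DDB1DB (Sf9) with 50 nM RBM39 RRM1–RRM2 (E. coli) in HEPES pH 7.5 buffer. Compounds run as a 14-point 3-fold series from 1 μM, incubated overnight at 4 °C.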

The target of assay [3] is T2, DCAF15 (DDA1-DDB1ΔB-DCAF15Δpro) (Homo sapiens, UniProt Q66K64, DEL276-383).
T2 construct: made in house; host or cells: Sf9 (Bac-to-Bac baculovirus)
Briefly: DCAF15 displacement assay (displacement FRET, probe PT7795). It is filed as binding. The note with it: displacement of PT7795 (300 nM), compound 0.01 to 100 μM, 18 hours incubation; read-out: DCAF15 displacement IC50.

A word on the IC50: it is the midpoint of a concentration-inhibition curve. By EC50 is commonly meant the midpoint of the concentration-response curve. For `O=S1(=O)Nc2c(cc(Cl)c3c(Cl)c[nH]c23)CN1CC1CCOCC1` [Compound 44, 6,7-dichloro-3-((tetrahydro-2H-pyran-4-yl)methyl)-1,3,4,9-tetrahydro-[1,2,6] thiadiazino[4,3-g]indole 2,2-dioxide], the IC50 in assay [1] is 62.2 nM; in assay [3] it was 276 nM. Further, the EC50 in assay [2] came out at 1.8 nM.
Turning to `COc1ccc(CN2Cc3cc(Cl)c4c(Cl)c[nH]c4c3NS2(=O)=O)cn1` [Compound 21, 6,7-dichloro-3-((6-methoxypyridin-3-yl)methyl)-1,3,4,9-tetrahydro-[1,2,6]thiadiazino [4,3-g]indole 2,2-dioxide], the IC50 in assay [1] is 415 nM; in assay [3] it was 560 nM. In addition, in assay [2], the EC50 was 1.5 nM.
The like results for `O=S1(=O)Nc2c(cc(Cl)c3c(Cl)c[nH]c23)CN1Cc1ccccc1Cl` [Compound 14, 6,7-dichloro-3-(2-chlorobenzyl)-1,3,4,9-tetrahydro-[1,2,6] thiadiazino[4,3-g] indole 2,2-dioxide] were, in that order, 218 nM, 2320 nM and 3.4 nM.
The matching figures for `COCCN1Cc2cc(Cl)c3c(Cl)c[nH]c3c2NS1(=O)=O` [Compound 1, 6,7-dichloro-3-(2-methoxyethyl)-1,3,4,9-tetrahydro-[1,2,6] thiadiazino[4,3-g]indole 2,2-dioxide]: 475 nM, 3160 nM and 5.5 nM.
The like results for `Cn1ncnc1CN1Cc2cc(Cl)c3c(Cl)c[nH]c3c2NS1(=O)=O` [Compound 38, 6,7-dichloro-3-((1-methyl-1H-1,2,4-triazol-5-yl)methyl)-1,3,4,9-tetrahydro-[1,2,6] thiadiazino[4,3-g]indole 2,2-dioxide] were, in that order, 262 nM, 458 nM and 1.3 nM.
`O=S1(=O)Nc2c(cc(Cl)c3c(Cl)c[nH]c23)CN1Cc1cccnc1` [Compound 26, 6,7-dichloro-3-(pyridin-3-ylmethyl)-1,3,4,9-tetrahydro-[1,2,6] thiadiazino[4,3-g] indole 2,2-dioxide]: the IC50 in assay [1] worked out at 130 nM; in assay [3], 507 nM. Besides, in assay [2], the EC50 stood at 1.2 nM.
On to `O=S1(=O)Nc2c(cc(Cl)c3c(Cl)c[nH]c23)CN1Cc1ccncn1` [Compound 52, 6,7-dichloro-3-(pyrimidin-4-ylmethyl)-1,3,4,9-tetrahydro-[1,2,6] thiadiazino[4,3-g]indole 2,2-dioxide], for which the IC50 in assay [1] turned out to be 93.7 nM; in assay [3], 580 nM. In addition, in assay [2], the EC50 was found to be 0.6 nM.
As to `O=S1(=O)NCc2cc(Cl)c3c(Cl)c[nH]c3c2N1` [Compound 3, 6,7-dichloro-1,3,4,9-tetrahydro-[1,2,6]thiadiazino[4,3-g]indole 2,2-dioxide], the IC50 turned out to be 1430 nM in assay [1] and 27800 nM in assay [3]. Besides, the EC50 in assay [2] is 8.1 nM.
On to `COCCN1Cc2cc(Cl)c3c(C#N)c[nH]c3c2NS1(=O)=O` [Compound 8, 6-chloro-3-(2-methoxyethyl)-1,3,4,9-tetrahydro-[1,2,6] thiadiazino[4,3-g]indole7-carbonitrile 2,2-dioxide], for which the IC50 in assay [1] was found to be 3160 nM; in assay [3] it was 3340 nM. Further, the EC50 in assay [2] is 6.2 nM.
For the compound `O=S1(=O)Nc2c(cc(Cl)c3c(Cl)c[nH]c23)CN1CC1CCOC1` (stereo not drawn) [Compound 86, 6,7-dichloro-3-((tetrahydrofuran-3-yl)methyl)-1,3,4,9-tetrahydro-[1,2,6] thiadiazino[4,3-g]indole 2,2-dioxide], the IC50 worked out at 121 nM in assay [1] and 410 nM in assay [3]. In addition, the EC50 in assay [2] turned out to be 1.3 nM.
The like results for `COCC[C@@H]1Cc2cc(Cl)c3c(Cl)c[nH]c3c2NS1(=O)=O` (single isomer, unassigned) [Compound 30] were, in that order, 184 nM, 2580 nM and 1.3 nM.
The matching figures for `O=S1(=O)Nc2c(cc(Cl)c3c(Cl)c[nH]c23)CN1Cc1ccccc1` [Compound 6, 3-benzyl-6,7-dichloro-1,3,4,9-tetrahydro-[1,2,6]thiadiazino[4,3-g]indole 2,2-dioxide]: 608 nM, 5260 nM and 3.1 nM.
For the compound `O=S1(=O)Nc2c(cc(Cl)c3c(Cl)c[nH]c23)CN1Cc1cncc(Cl)c1` [Compound 56, 6,7-dichloro-3-((5-chloropyridin-3-yl)methyl)-1,3,4,9-tetrahydro-[1,2,6] thiadiazino[4,3-g]indole 2,2-dioxide], the IC50 is 184 nM in assay [1] and 1440 nM in assay [3]. Further, the EC50 in assay [2] turned out to be 2.6 nM.
The matching figures for `N#Cc1c[nH]c2c3c(cc(Cl)c12)CNS(=O)(=O)N3` [Compound 58, 6-chloro-1,3,4,9-tetrahydro-[1,2,6]thiadiazino[4,3-g]indole-7-carbonitrile 2,2-dioxide]: 5000 nM, 14900 nM and 46.2 nM.
On to `O=S1(=O)CCc2cc(Cl)c3c(Cl)c[nH]c3c2N1` [Compound 5, 6,7-dichloro-1,3,4,9-tetrahydro-[1,2]thiazino[4,3-g]indole 2,2-dioxide], for which the IC50 in assay [1] was found to be 789 nM; in assay [3], 20000 nM. The EC50 in assay [2] was found to be 11 nM.
The like results for `COCCN1Cc2cc(Cl)c3c(Cl)n[nH]c3c2NS1(=O)=O` [Compound 64, 6,7-dichloro-3-(2-methoxyethyl)-1,3,4,9-tetrahydro-[1,2,6]thiadiazino[4,3-g]indazole 2,2-dioxide] were, in that order, 5000 nM, 4560 nM and 10 nM.
The matching figures for `O=S1(=O)Nc2c(cc(Cl)c3c(Cl)c[nH]c23)CN1Cc1cccnc1Cl` [Compound 27, 6,7-dichloro-3-((2-chloropyridin-3-yl)methyl)-1,3,4,9-tetrahydro-[1,2,6]thiadiazino [4,3-g]indole 2,2-dioxide]: 140 nM, 647 nM and 0.8 nM.
The like results for `CC(=O)N1CC(CN2Cc3cc(Cl)c4c(Cl)c[nH]c4c3NS2(=O)=O)C1` [Compound 47, 1-(3-((6,7-dichloro-2,2-dioxido-4,9-dihydro-[1,2,6]thiadiazino[4,3-g]indol-3(1H)-yl)methyl)azetidin-1-yl) ethan-1-one] were, in that order, 393 nM, 390 nM and 0.4 nM.
Take `CCCC1=Cc2ccc3c(Cl)c[nH]c3c2NS1(=O)=O` [Compound 9, 7-chloro-3-propyl-1,9-dihydro-[1,2]thiazino[4,3-g]indole 2,2-dioxide]: the figures for the IC50 in assay [1] and in assay [3] were 5000 nM and not below 100000 nM, respectively. Besides, in assay [2], the EC50 is 74.7 nM.
Turning to `O=S1(=O)NCc2nc(Cl)c3c(Cl)c[nH]c3c2N1` [Compound 31, 6,7-dichloro-1,3,4,9-tetrahydropyrrolo[2′,3′:4,5]pyrido[3,2-c][1,2,6]thiadiazine 2,2-dioxide], the IC50 was 4510 nM in assay [1] and not below 100000 nM in assay [3]. The EC50 in assay [2] is 263 nM.
The matching figures for `COCCC1Cc2cc(Cl)c3c(Cl)c[nH]c3c2NS1(=O)=O` (racemic) [Compound 22, 6,7-dichloro-3-(2-methoxyethyl)-1,3,4,9-tetrahydro-[1,2]thiazino[4,3-g]indole 2,2-dioxide]: 234 nM, 12300 nM and 0.7 nM.
As for `O=S1(=O)Nc2c(cc(Cl)c3c(Cl)c[nH]c23)CN1c1ccccc1` [Compound 7, 6,7-dichloro-3-phenyl-1,3,4,9-tetrahydro-[1,2,6] thiadiazino[4,3-g]indole 2,2-dioxide], the figures for the concentration for half-maximal inhibition (IC50) in assay [1] and in assay [3] were 1310 nM and 17400 nM, respectively. Further, the EC50 in assay [2] is 8.8 nM.
With `O=S1(=O)Nc2c(cc(Cl)c3c(Cl)c[nH]c23)CN1CC1CCNCC1` [Compound 39, 6,7-dichloro-3-(piperidin-4-ylmethyl)-1,3,4,9-tetrahydro-[1,2,6]thiadiazino[4,3-g]indole 2,2-dioxide], the IC50 is 4990 nM in assay [1] and 285 nM in assay [3]. In assay [2], the EC50 was found to be 1.2 nM.
The like results for `N#Cc1ccc(CN2Cc3cc(Cl)c4c(Cl)c[nH]c4c3NS2(=O)=O)cc1` [Compound 50, 4-((6,7-dichloro-2,2-dioxido-4,9-dihydro-[1,2,6]thiadiazino[4,3-g]indol-3(1H)-yl)methyl) benzonitrile] were, in that order, 881 nM, 5710 nM and 1.1 nM.
